Data reported in patent EP0637237B1, “CALCIUM RECEPTOR-ACTIVE MOLECULES” (BRIGHAM AND WOMEN'S HOSPITAL, INC., priority 1993, dated 1994).
Read-outs that look alike come from different tables or passages of the source.

Key:
[1] = Serum or whole blood ionized Ca2+ and PTH in rats in vivo; parameters: species or system Sprague-Dawley rats
Source text: Male Sprague-Dawley rates (200 g) were maintained on a low calcium diet for one week prior to receiving test substance or vehicle as control. Blood was collected from the tail vein three hours after the intra-peritoneal administration of NPS 467. […]

[2] = target: T1, parathyroid cell Ca^2+ receptor (Bos taurus, UniProt P35384); format: cell-based, bovine; details: for effect on [Ca2+]i: tested at concentrations of 100 to 300 µM
T1 sequence (P35384 20-1085): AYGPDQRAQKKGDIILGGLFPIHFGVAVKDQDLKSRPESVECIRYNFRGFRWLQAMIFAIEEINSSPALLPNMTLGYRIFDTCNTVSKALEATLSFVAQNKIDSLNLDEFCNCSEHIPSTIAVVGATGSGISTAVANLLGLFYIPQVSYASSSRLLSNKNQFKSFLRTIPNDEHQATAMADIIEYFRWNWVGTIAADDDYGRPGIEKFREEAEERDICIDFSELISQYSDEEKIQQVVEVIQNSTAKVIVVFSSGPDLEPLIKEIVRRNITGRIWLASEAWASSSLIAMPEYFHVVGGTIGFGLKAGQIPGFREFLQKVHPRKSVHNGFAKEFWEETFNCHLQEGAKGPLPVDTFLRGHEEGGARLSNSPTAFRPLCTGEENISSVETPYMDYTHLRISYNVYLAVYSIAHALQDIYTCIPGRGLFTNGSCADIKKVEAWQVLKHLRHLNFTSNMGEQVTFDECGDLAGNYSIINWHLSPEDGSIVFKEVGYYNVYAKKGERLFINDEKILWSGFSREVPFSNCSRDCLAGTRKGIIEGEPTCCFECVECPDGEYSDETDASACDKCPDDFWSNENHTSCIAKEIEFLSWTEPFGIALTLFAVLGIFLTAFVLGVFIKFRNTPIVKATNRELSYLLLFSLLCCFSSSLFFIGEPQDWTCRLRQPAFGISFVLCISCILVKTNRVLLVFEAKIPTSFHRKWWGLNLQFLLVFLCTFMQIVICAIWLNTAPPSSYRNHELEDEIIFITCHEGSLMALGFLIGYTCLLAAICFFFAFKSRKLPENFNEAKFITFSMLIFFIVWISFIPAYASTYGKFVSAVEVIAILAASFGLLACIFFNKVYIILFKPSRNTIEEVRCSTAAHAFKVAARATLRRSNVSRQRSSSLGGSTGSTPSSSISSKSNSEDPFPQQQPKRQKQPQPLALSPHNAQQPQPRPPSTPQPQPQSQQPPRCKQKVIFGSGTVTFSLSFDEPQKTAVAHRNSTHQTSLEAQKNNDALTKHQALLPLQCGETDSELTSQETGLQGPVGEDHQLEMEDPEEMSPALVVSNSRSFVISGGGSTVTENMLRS

[3] = Net positive charge of the molecule; format: physicochemical; details: Table 1; effective charge at physiological pH
[4] = test system: osteoclast Ca^2+ receptor; assay: [Ca2+]i (indo-1) in single rat osteoclasts; format: cell-based; details: for increase in [Ca2+]i in osteoclasts: screening, small responses were detected
[5] = target: T2, parathyroid cell Ca^2+ receptor (Homo sapiens, UniProt P41180); assay: [Ca2+]i (fura-2) in human parathyroid cells; format: cell-based; details: human parathyroid cells (adenoma)
T2 construct: Dissociated parathyroid cells were prepared from a parathyroid adenoma obtained by surgery from a patient with primary hyperparathyroidism; endogenous in cells; host or cells: primary human parathyroid cells from adenomatous or hyperplastic glands
T2 sequence (P41180 20-1078): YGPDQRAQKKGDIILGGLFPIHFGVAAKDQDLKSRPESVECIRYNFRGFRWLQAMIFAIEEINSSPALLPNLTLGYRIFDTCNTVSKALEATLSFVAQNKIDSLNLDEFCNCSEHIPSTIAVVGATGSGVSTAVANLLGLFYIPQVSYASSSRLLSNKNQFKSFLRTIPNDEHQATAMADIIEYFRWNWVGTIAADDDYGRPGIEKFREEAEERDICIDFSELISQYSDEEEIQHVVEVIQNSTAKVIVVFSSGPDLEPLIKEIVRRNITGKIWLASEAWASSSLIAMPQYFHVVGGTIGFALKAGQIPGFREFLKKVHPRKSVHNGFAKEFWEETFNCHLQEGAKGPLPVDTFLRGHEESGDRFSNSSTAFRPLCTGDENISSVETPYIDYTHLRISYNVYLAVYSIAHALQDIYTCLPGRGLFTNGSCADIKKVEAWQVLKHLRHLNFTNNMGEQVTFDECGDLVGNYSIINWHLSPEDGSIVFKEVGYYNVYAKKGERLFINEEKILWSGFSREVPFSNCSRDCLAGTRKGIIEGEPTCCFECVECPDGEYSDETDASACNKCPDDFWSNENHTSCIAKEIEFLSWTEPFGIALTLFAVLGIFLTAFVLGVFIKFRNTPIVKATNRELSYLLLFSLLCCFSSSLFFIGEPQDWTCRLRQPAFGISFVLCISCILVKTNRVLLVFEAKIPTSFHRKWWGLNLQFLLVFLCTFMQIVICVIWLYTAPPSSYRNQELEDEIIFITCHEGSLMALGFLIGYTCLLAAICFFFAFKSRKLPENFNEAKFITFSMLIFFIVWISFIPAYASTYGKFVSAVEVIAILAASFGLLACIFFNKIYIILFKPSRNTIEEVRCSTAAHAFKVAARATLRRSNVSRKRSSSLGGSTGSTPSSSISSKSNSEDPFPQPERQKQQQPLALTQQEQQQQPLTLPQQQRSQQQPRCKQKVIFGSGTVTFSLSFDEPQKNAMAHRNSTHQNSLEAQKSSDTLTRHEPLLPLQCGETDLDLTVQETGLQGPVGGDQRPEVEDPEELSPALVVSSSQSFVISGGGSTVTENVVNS
Description: Human parathyroid glands, obtained from patients undergoing surgical removal of parathyroid tissue for primary or uremic hyperparathyroidism (HPT), were treated similarly to bovine tissue. Glands were trimmed of excess fat and connective tissue and then minced with a fine scissors into approximate cubes of 2-3 mm. Dissociated parathyroid cells were prepared by collagenase digestion. Dissociated cells were then purified by centrifugation in Percoll buffer. The resultant parathyroid cell preparation was essentially devoid of red blood cells, adipocytes, and capillary tissue as assessed by phase contrast microscopy and Sudan black B staining. Dissociated and purified parathyroid cells were present as small clusters containing 5 to 20 cells.
The cells were then pelleted, resuspended in the same buffer lacking the ester, and incubated a further 15 min at 37°C. The cells were subsequently washed twice with PCB containing 0.5 mM CaCl2 and 0.5% BSA and maintained at room temperature (about 20°C). Immediately before use, the cells were diluted five-fold with prewarmed 0.5 mM CaCl2-PCB to obtain a final BSA concentration of 0.1%. The concentration of cells in the cuvette used for fluorescence recording was 1-2 x 10^6/ml.
The fluorescence of indicator-loaded cells was measured at 37°C in a spectrofluorimeter (Biomedical Instrumentation Group, University of Pennsylvania, Philadelphia, PA) equipped with a thermostated cuvette holder-and magnetic stirrer using excitation and emission wavelengths of 340 and 510 nm, respectively. […] Leakage of dye is dependent on temperature and most occurs within the first 2 min after warming the cells in the cuvette; dye leakage increases only very slowly thereafter. To correct the calibration for dye leakage, cells were placed in the cuvette and stirred at 37°C for 2-3 min. The cell suspension was then removed, the cells pelleted, and the supernatant returned to a clean cuvette. […] This estimate was subtracted from the apparent Fmin.

[6] = target: T3, Ca^2+ receptor (Homo sapiens, UniProt P41180); assay: Cl- current in Xenopus oocytes injected with human parathyroid poly(A)+ mRNA; format: cell-based; details: hexacyclen 135 µM, neomycin 100 µM, NPS 382 5 mM
T3 construct: Oocytes were injected with poly(A)^+-enriched mRNA from human parathyroid tissue (hyperplastic glands from a case of secondary HPT); expressed in transfected cells; host or cells: Xenopus laevis oocytes injected with poly(A)+ mRNA from hyperplastic human parathyroid glands
T3 sequence (P41180 20-1078): T2 sequence (P41180 20-1078)

[7] = read-out: EC50 for the mobilization of intracellular Ca2+, […]
[8] = Table 6, rat osteoclasts, indo-1, inactive = no increase in cytosolic Ca2+ at 1-5 mM
[9] = Table 1, mobilization of intracellular Ca2+ in parathyroid cells, read-out: EC50

With `COc1cccc(C(C)NCCCc2ccccc2)c1` (racemic) [NPS 467] as the compound, how does the “time course of the hypocalcemic effect” value ([1]; Fig. 40 (25 mg/kg)) read?
Its value is “maximal within three hours and returned toward control levels after 24 hours”.

What about the “serum albumin or phosphate levels” value ([1]; any of the doses examined) of the same compound?
The value was “no change in serum albumin or phosphate levels”.

And the “serum or whole blood Ca2+” value ([1]; low calcium diet, three hours after intra-peritoneal administration, Fig. 38)?
Its value is “dose-dependent reduction in serum or whole blood Ca^2+”.

And the “serum ionized calcium after oral administration” value ([1]; oral, dose-response curve, Fig. 44)?
Its value is “lowers serum ionized calcium in rats when administered orally”.

And the “circulating levels of PTH” value ([1]; preliminary studies, doses effective in lowering blood Ca2+, Fig. 39)?
The value was “dose-dependent reduction in circulating levels of PTH”.

And the EC50 [2, 7]?
The EC50 was under 5 µM.

For `COc1cccc(C(C)NCCCc2ccccc2Cl)c1` (racemic) [NPS 568], which EC50 [2, 7] is on record?
The EC50 was under 5 µM.

For `NCCCCCCCCCCCCN` [1,12-diaminododecane (DADD), 1,12-diaminododecane], which “Net (+) Charge” value [3] is on record?
Its value is “+2”.

And the EC50 ([2]; read-out: EC50)?
The EC50 was 3000 µM.

For `NC(=O)C[C@H](NC(=O)Cc1c[nH]c2cccc(O)c12)C(=O)NCCCCCNCCCNCCCNC(=O)[C@@H](N)CCCN=C(N)N` [Argiotoxin 659], which “Net (+) Charge” value [3] is on record?
The value was “+4”.

And the “effect on [Ca2+]i” value [2]?
The value was “evoked transient increases in [Ca^2+]i”.

With `NCCCNCCCCNCCCNCCCN(O)CCCNC(=O)Cc1c[nH]c2ccccc12` [NPS 017] as the compound, how does the “EC50(µM) OSTEOCLAST” value [4, 8] read?
The value was “inactive”.

With `NCCCNCCCCNCCCNCCCNCCCNC(=O)Cc1c[nH]c2ccccc12` [NPS 019] as the compound, how does the EC50 [4, 8] read?
The EC50 was over 300 µM.

For `NCCCN(CCCN)CCCN(CCCN)CCCCN(CCCN)CCCN(CCCN)CCCN` [NPS 381, N^1,N^1,N^5,N^10,N^14,N^14-hexakis-(3-aminopropyl) spermine], which “Net (+) Charge” value [3] is on record?
Its value is “+10”.

Which “Net (+) Charge” value [3] does the source give for `NCCCN1CCCN(CCCN)CCN(CCCN)CCCN(CCCN)CC1` [NPS 383] here?
Its value is “+8”.

For `COc1cccc([C@@H](C)NCCCc2ccccc2Cl)c1` [NPS R-568], which EC50 [5] is on record?
Its EC50 is 3 µM.

And the EC50 ([2]; Table 6, […], fura-2, inactive = no increase in cytosolic Ca2+ at 1-5 mM, read-out: EC50(µM) PARATHYROID)?
The EC50 was 0.6 µM.

With `NC(=O)C[C@H](NC(=O)Cc1ccc(O)cc1O)C(=O)NCCCCCNCCCNCCCNC(=O)[C@@H](N)CCCN=C(N)N` [argiotoxin 636] as the compound, how does the “effect on [Ca2+]i” value [2] read?
Its value is “without effect”.

What does the source list for `NC[C@H]1O[C@H](O[C@H]2[C@H](O)[C@@H](O[C@H]3O[C@H](CO)[C@@H](O)[C@H](N)[C@H]3O)[C@H](N)C[C@@H]2N)[C@H](N)[C@@H](O)[C@@H]1O` [bekanamycin]?
Net (+) Charge [3]: +5; EC50 [2, 9]: 200 µM; EC50 ([2]; […]): 200 µM

Which results are given for `C1CNCCNCCNCCNCCNCCN1` [hexacyclen, 1,4,7,10,13,16-hexaaza-cyclooctadecane]?
Net (+) Charge [3]: +6; fold increase in potency over pentaethylenehexamine (straight chain analog) [2]: 25 fold; EC50 [2, 9]: 20 µM; EC50 ([2]; […]): 20 µM; mobilization of intracellular Ca2+ in oocytes expressing the Ca2+ receptor [6]: caused the mobilization of intracellular Ca^2+

Which “effect on cytosolic Ca2+ transients” value ([2]; tested at a concentration of 500 µM) does the source give for `CCC[C@@H]1C[C@@H](C(=O)N[C@@H]([C@H]2O[C@H](SC)[C@H](O)[C@@H](O)[C@H]2O)[C@@H](C)O)N(C)C1` [lincomycin] here?
Its value is “without effect”.

With `NCCCCNCCCN` [spermidine] as the compound, how does the “increase in [Ca2+]i, % of that evoked by a maximal concentration of extracellular Ca2+” value ([4]; concentration of 1 mM) read?
Its value is “about 10%”.

What about the “increase in [Ca2+]i in osteoclasts” value [4] of the same compound?
The value was “none of these caused any large increase in [Ca^2+]i”.

And the “Net (+) Charge” value [3]?
The value was “+3”.

And the EC50 [2]?
The EC50 was 2000 µM.

What does the source list for `[H]/N=C(/N)N[C@H]1[C@H](O)[C@@H](O)[C@H](O[C@@H]2O[C@@H](C)[C@](O)(C=O)[C@H]2O[C@@H]2O[C@@H](CO)[C@H](O)[C@@H](O)[C@@H]2NC)[C@@H](N/C(N)=N\[H])[C@@H]1O` [streptomycin]?
Net (+) Charge [3]: +3; EC50 [2, 9]: 600 µM; EC50 ([2]; […]): 600 µM

With `NCCNCCNCCNCCN` [tetraethylenepentamine] as the compound, how does the “Net (+) Charge” value [3] read?
The value was “+5”.

Which “Net (+) Charge” value [3] does the source give for `NCCNCCNCCN` [triethylenetetramine] here?
The value was “+4”.

Which “increase in [Ca2+]i in osteoclasts” value [4] does the source give for `COc1ccc(CCN(C)CCCC(C#N)(c2ccc(OC)c(OC)c2)C(C)C)cc1OC` (centres unmarked) [verapamil] here?
Its value is “none of these caused any large increase in [Ca^2+]i”.

And the “increase in [Ca2+]i” value ([4]; verapamil 100 µM)?
The value was “no detectable increase in [Ca^2+]i”.

For “N^1,N^1,N^5,N^14,N^14-tetrakis-(3-aminopropyl)spermine [NPS 382]”, which “Net (+) Charge” value [3] is on record?
Its value is “+8”.

What about the “mobilization of intracellular Ca2+ in oocytes expressing the Ca2+ receptor” value [6] of the same compound?
The value was “effective”.

For gentamicin, which “Net (+) Charge” value [3] is on record?
The value was “+5”.
